Values quoted from earlier work in US20080021074A1, “Pharmaceutical Compositions and Related Methods of Treatment” (QUESTCOR PHARMACEUTICALS, INC., priority 2006, published 2008).
Where a name gives a salt, the structure may show the parent alone.

Columns and labels:
CYP1A2 [1] = conditions: primary human hepatocyte cultures, concentration-dependent
monkeys = conditions: single administration
CYP2B6 = conditions: primary human hepatocyte cultures, concentration-dependent
CYP2C19 = CYP2C19 (Homo sapiens, UniProt P33261)
mice = conditions: single administration
CYP3A4 = conditions: primary human hepatocyte cultures, concentration-dependent
[2] = tizanidine and baclofen combined
spasticity = conditions: clinical studies
CYP1A2 [3] = target: CYP1A2 (Homo sapiens, UniProt P05177); conditions: in vitro
Chain of CYP1A2 (Homo sapiens, UniProt P05177) (P05177 whole entry): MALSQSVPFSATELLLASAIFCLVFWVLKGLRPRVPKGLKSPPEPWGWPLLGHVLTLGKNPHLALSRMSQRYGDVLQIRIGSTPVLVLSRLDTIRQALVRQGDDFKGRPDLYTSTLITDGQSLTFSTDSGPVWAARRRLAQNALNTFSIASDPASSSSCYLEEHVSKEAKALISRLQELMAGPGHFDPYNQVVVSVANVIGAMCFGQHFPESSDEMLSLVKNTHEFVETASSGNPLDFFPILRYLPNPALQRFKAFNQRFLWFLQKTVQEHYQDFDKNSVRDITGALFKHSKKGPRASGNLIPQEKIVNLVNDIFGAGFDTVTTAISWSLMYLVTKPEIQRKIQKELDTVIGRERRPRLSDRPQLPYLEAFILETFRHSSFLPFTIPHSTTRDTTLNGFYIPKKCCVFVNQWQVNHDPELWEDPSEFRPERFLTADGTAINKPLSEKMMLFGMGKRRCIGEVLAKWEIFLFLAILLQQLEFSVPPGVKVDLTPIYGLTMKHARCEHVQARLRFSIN

Chain of CYP2C19 (P33261 whole entry): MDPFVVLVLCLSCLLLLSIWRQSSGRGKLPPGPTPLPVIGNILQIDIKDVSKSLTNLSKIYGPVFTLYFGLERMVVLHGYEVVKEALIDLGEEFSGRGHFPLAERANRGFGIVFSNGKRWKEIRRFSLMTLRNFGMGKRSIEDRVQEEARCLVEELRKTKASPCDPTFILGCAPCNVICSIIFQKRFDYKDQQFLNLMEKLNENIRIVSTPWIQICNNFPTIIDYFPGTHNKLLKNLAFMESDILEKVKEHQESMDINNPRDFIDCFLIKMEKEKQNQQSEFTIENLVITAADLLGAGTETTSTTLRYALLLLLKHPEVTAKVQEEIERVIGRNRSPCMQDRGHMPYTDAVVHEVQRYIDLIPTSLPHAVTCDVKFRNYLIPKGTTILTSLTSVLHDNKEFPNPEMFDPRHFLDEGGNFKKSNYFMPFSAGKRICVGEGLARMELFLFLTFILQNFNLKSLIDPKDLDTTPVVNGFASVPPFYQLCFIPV

NC(=O)C[S+]([O-])C(c1ccccc1)c1ccccc1 (stereo not drawn) [Modafinil, 2-[(diphenylmethyl)sulfinyl]acetamide]
induction of CYP1A2 (CYP1A2 [1]): slightly induce
nocturnal activity (monkeys): increased nocturnal activity
induction of CYP2B6 (CYP2B6): slightly induce
inhibition of CYP2C19 (CYP2C19): reversible inhibitors
locomotor activity (mice): increased locomotor activity
induction of CYP3A4 (CYP3A4): slightly induce

NCC(CC(=O)O)c1ccc(Cl)cc1 (stereo not drawn) [baclofen, 4-amino-3-(4-chlorophenyl)-butanoic acid]
pharmacokinetic interaction [2]: without significant pharmacokinetic interaction

NC(=O)CS(=O)(=O)C(c1ccccc1)c1ccccc1 [modafinil sulfone]
inhibition of CYP2C19 (CYP2C19): reversible inhibitors

Clc1ccc2nsnc2c1NC1=NCCN1 [Tizanidine, 5-chloro-4-(2-imidazolin-2-ylamino)-2,1,3-benzothiodiazole hydrochloride]
pharmacokinetic interaction [2]: without significant pharmacokinetic interaction
antispastic effect compared with diazepam and baclofen (spasticity): as effective as other antispastic agents
tolerability compared with diazepam and baclofen (spasticity; especially incidence of debilitating muscle weakness): more favorable tolerability profile
metabolizing enzyme (CYP1A2 [3]): metabolized by CYP1A2
